Reference: patent publication US7786141B2 (Vertex Pharmaceuticals Incorporated, priority 2004, dated 2010)
Read-outs that look alike come from different tables or passages of the source.

Columns and labels:
M1 muscarinic receptor = biological target: T1, M1 muscarinic receptor (Homo sapiens, UniProt P11229); test: Functional mobilization of intracellular calcium (FLIPR) in M1-CHO cells; type: cell-based
T1 construct: expressed in transfected cells; host or cells: CHO (M1-CHO)
T1 sequence (P11229 1-460): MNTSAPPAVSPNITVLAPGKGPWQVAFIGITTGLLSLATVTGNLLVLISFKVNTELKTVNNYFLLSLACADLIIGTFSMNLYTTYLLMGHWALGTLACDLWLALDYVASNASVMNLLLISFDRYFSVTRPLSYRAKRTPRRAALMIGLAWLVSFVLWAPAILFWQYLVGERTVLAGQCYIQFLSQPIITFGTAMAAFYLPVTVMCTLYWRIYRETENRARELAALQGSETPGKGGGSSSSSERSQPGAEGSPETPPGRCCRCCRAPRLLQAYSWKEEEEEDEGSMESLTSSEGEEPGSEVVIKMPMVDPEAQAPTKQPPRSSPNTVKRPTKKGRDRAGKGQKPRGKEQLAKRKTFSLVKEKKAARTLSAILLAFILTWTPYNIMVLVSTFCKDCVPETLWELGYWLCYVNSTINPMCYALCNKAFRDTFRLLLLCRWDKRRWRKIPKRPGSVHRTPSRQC
Method in brief: (§1)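 CHO cells stably expressing human M1 or M4 receptor were loaded with Fluo-3 AM (or Calcium 3 dye) in Hepes-buffered saline, pH 7.4, with 1 mM probenecid, 0.5% final DMSO. Agonist mode: compound added directly; antagonist mode: 15 min preincubation before carbachol at EC80. FLIPR fluorescence recorded 60 sec.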

M4 muscarinic receptor = biological target: T2, M4 muscarinic receptor (Homo sapiens, UniProt P08173); test: Functional mobilization of intracellular calcium (FLIPR) in M4-CHO cells; type: cell-based
T2 construct: expressed in transfected cells; host or cells: CHO (M4-CHO)
T2 sequence (P08173 1-479): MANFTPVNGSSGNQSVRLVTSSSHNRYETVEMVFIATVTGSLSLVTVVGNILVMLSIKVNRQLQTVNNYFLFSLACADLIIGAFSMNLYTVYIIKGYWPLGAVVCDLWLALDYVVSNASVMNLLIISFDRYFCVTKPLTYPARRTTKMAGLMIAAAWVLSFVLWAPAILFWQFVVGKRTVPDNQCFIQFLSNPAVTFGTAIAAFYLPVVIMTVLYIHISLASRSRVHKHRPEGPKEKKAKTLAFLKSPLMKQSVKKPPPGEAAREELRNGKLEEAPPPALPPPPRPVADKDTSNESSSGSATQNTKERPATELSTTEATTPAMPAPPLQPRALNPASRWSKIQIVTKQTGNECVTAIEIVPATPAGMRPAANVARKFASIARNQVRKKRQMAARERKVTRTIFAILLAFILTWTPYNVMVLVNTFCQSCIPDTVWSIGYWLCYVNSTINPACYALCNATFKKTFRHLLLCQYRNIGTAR
Method in brief: as §1

[1] = Table 4, 100% efficacy is the maximum response obtained with the Carbachol control
[2] = Table 4, modulating M1 receptor
[3] = Table 4, modulating M4 receptor
[4] = Table 4, M1 receptor, calcium mobilization (FLIPR)
[5] = Table 4, M4 receptor, calcium mobilization (FLIPR)
[6] = M1 receptor, calcium mobilization
[7] = M1 receptor, calcium mobilization, read-out: M1 Efficacy
[8] = M4 receptor, calcium mobilization
[9] = M4 receptor, calcium mobilization, read-out: M4 Efficacy

Row | SMILES | Emax (M1 muscarinic receptor; [1]) [%] | M1 Activity (M1 muscarinic receptor; [2]) | Emax (M4 muscarinic receptor; [1]) [%] | M4 Activity (M4 muscarinic receptor; [3]) | M1 Activity (M1 muscarinic receptor; [6]) | Emax (M1 muscarinic receptor; [7]) [%] | M4 Activity (M4 muscarinic receptor; [8]) | Emax (M4 muscarinic receptor; [9]) [%] | further results
1 | CN(C)C(=O)N1CC2(CCN(C3CCN(C(=O)OCC4CC4)CC3)CC2)c2cc(F)ccc21 [compound 595] | 25 to 100 | xxx (activity was measured to be less than 2.0 μM) | 25 to 100 | xxx (activity was measured to be less than 2.0 μM) |  |  |  |  | 
2 | CC(=O)N[C@H]1CCC2(CCN(C[C@@H]3C[C@H]4C=C[C@H]3C4)CC2)c2ccccc21 [compound 447] | 25 to 100 | xxx (activity was measured to be less than 2.0 μM) | 25 to 100 | xxx (activity was measured to be less than 2.0 μM) |  |  |  |  | 
3 | CCOC(=O)N1CCC(N2CCC3(CC2)CN(C(C)=O)c2c(Br)cccc23)CC1 [compound 995] | 25 to 100 |  | 25 to 100 |  |  |  |  |  | M1 Activity (M1 muscarinic receptor; [4]): x (activity was measured to be greater than 5.0 μM); M4 Activity (M4 muscarinic receptor; [5]): xx (activity was measured to be between 2.0 μM and 5.0 μM)
4 | CC#CCOC(=O)N1CCC(N2CCC3(CC2)CN(CCOC)c2ccc(F)cc23)CC1 [compound 853] | 25 to 100 |  | 25 to 100 |  |  |  |  |  | M1 Activity (M1 muscarinic receptor; [4]): xxx (activity was measured to be less than 2.0 μM); M4 Activity (M4 muscarinic receptor; [5]): xxx (activity was measured to be less than 2.0 μM)
5 | CCOC(=O)N1CCC(N2CCC3(CC2)CN(C(=O)OCC(C)(C)C)c2ccc(F)cc23)CC1 [compound 63] |  |  |  |  | xxx (activity was measured to be less than 0.1 μM) | < 65 | x (activity was measured to be greater than 1.0 μM) | < 65 | 
6 | CCOC(=O)N1CCC(N2CCC3(CC2)CN(C(C)=O)c2ccc(-c4cccc(F)c4)cc23)CC1 [compound 84] |  |  |  |  | xxx (activity was measured to be less than 0.1 μM) | 65 to 85 | xx (activity was measured to be between 0.1 μM and 1.0 μM) | 65 to 85 | 
7 | Cc1ccc2c(c1)C1(CCN(CC3CC4C=CC3C4)CC1)CN2 (stereo not shown) [compound 3] |  |  |  |  | xxx (activity was measured to be less than 0.1 μM) | 65 to 85 | xx (activity was measured to be between 0.1 μM and 1.0 μM) | 65 to 85 | 
8 | CC(=O)N1CC2(CCN(CC3CCCCC3)CC2)c2cc(F)ccc21 [compound 393] |  |  |  |  |  |  |  |  | EC50 (M1 muscarinic receptor; M1-CHO cells, calcium mobilization (FLIPR)): < 0.1 µM; Emax (M1 muscarinic receptor; M1-CHO cells, calcium mobilization (FLIPR), read-out: M1 Efficacy): 65 to 85%; EC50 (M4 muscarinic receptor; M4-CHO cells, calcium mobilization (FLIPR)): > 1 µM; Emax (M4 muscarinic receptor; M4-CHO cells, calcium mobilization (FLIPR), read-out: M4 Efficacy): < 65%
9 | CCOC(=O)N1CCC(N2CCC3(CC2)CN(C2CCC4(CC2)OCCO4)c2ccccc23)CC1 [compound 513] | 25 to 100 | xxx (activity was measured to be less than 2.0 μM) | 25 to 100 | xxx (activity was measured to be less than 2.0 μM) |  |  |  |  | 
10 | CC(=O)N(C)[C@@H]1CC2(CCN(C[C@H]3C[C@H]4CC[C@H]3C4)CC2)c2ccccc21 [compound 339] |  |  |  |  | x (activity was measured to be greater than 1.0 μM) | < 65 | x (activity was measured to be greater than 1.0 μM) | < 65 | 
11 | CC(=O)N[C@H]1CC2(CCN(CC(=O)N3C[C@@H](C)O[C@@H](C)C3)CC2)c2ccccc21 [compound 782] | < 25 | x (activity was measured to be greater than 5.0 μM) | < 25 | x (activity was measured to be greater than 5.0 μM) |  |  |  |  | 
12 | CC(=O)N1CC2(CCN(CC3CCOC3)CC2)c2cc(F)ccc21 (stereo not shown) [compound 135] |  |  |  |  | xxx (activity was measured to be less than 0.1 μM) | > 85 | xx (activity was measured to be between 0.1 μM and 1.0 μM) | > 85 | 
13 | Fc1ccc2c(c1)C1(CCN([C@@H]3C[C@@H]4CC[C@H]3C4)CC1)CO2 [compound 175] |  |  |  |  | xxx (activity was measured to be less than 0.1 μM) | 65 to 85 | xx (activity was measured to be between 0.1 μM and 1.0 μM) | 65 to 85 | 
14 | CCOC(=O)N1CCC(CN2CCC3(CC2)CN(C(C)=O)c2c(F)cc(F)cc23)CC1 [compound 722] | 25 to 100 | xxx (activity was measured to be less than 2.0 μM) | 25 to 100 | xxx (activity was measured to be less than 2.0 μM) |  |  |  |  | 
15 | Clc1ccc2c(c1)C1(CCN([C@H]3C[C@@H]4CC[C@@H]3C4)CC1)CO2 [compound 1] |  |  |  |  | xx (activity was measured to be between 0.1 μM and 1.0 μM) | 65 to 85 | xx (activity was measured to be between 0.1 μM and 1.0 μM) | > 85 | 
16 | CC(=O)N[C@H]1CCC2(CCN(C3CCC(C(C)(C)C)CC3)CC2)c2ccccc21 (stereo partly shown) [compound 646] | 25 to 100 | xxx (activity was measured to be less than 2.0 μM) | < 25 | x (activity was measured to be greater than 5.0 μM) |  |  |  |  | 
17 | CC(=O)N[C@H]1CCC2(CCN(CC3CCCCC3)CC2)c2ccccc21 [compound 605] | 25 to 100 | xxx (activity was measured to be less than 2.0 μM) | 25 to 100 | xxx (activity was measured to be less than 2.0 μM) |  |  |  |  | 
18 | CCOC(=O)N1CCC(N2CCC3(CC2)CN(C(C)=O)c2ccc(-c4ccccc4C)cc23)CC1 [compound 78] |  |  |  |  | xxx (activity was measured to be less than 0.1 μM) | 65 to 85 | xx (activity was measured to be between 0.1 μM and 1.0 μM) | < 65 | 
19 | CC#CCOC(=O)N1CC[C@H](CN2CCC3(CC2)CN(C(=O)N(C)C)c2ccc(F)cc23)C1 [compound 761] | 25 to 100 | xxx (activity was measured to be less than 2.0 μM) | 25 to 100 | xxx (activity was measured to be less than 2.0 μM) |  |  |  |  | 
20 | CC(=O)N1CC2(CCN(C[C@@H]3CCN(c4cnccn4)C3)CC2)c2c(C)cccc21 [compound 913] | 25 to 100 |  | < 25 |  |  |  |  |  | M1 Activity (M1 muscarinic receptor; [4]): x (activity was measured to be greater than 5.0 μM); M4 Activity (M4 muscarinic receptor; [5]): x (activity was measured to be greater than 5.0 μM)
21 | CN(C)C(=O)N1CC2(CCN(C3CCN(C(=O)OCC(F)F)CC3)CC2)c2cc(F)ccc21 [compound 885] | 25 to 100 |  | 25 to 100 |  |  |  |  |  | M1 Activity (M1 muscarinic receptor; [4]): xxx (activity was measured to be less than 2.0 μM); M4 Activity (M4 muscarinic receptor; [5]): xxx (activity was measured to be less than 2.0 μM)
22 | CN(C)C(=O)N1CC2(CCN(C3CCN(C(=O)c4ccncc4)CC3)CC2)c2cc(F)ccc21 [compound 791] | 25 to 100 | xx (activity was measured to be between 2.0 μM and 5.0 μM) | < 25 | x (activity was measured to be greater than 5.0 μM) |  |  |  |  | 
23 | c1ccc2c(c1)CCCC21CCN(CC2CCCCC2)CC1 [compound 802] | 25 to 100 |  | 25 to 100 |  |  |  |  |  | 
24 | CCOC(=O)N1C2CCC1CC(N1CCC3(CC1)CN(C(C)=O)c1c(C(F)(F)F)cccc13)C2 (stereo not shown) [compound 686] | < 25 | x (activity was measured to be greater than 5.0 μM) | < 25 | x (activity was measured to be greater than 5.0 μM) |  |  |  |  | 
25 | COCCOC(=O)N1CCC(N2CCC3(CC2)CN(C(C)=O)c2ccc(F)cc23)C1 (stereo not shown) [compound 1012] | < 25 |  | < 25 |  |  |  |  |  | M1 Activity (M1 muscarinic receptor; [4]): x (activity was measured to be greater than 5.0 μM); M4 Activity (M4 muscarinic receptor; [5]): x (activity was measured to be greater than 5.0 μM)
26 | Clc1ccc2c(c1)C1(CCO2)CCN(CC2CCOCC2)CC1 [compound 288] |  |  |  |  | x (activity was measured to be greater than 1.0 μM) | < 65 | x (activity was measured to be greater than 1.0 μM) | < 65 | 
27 | CCC(C)C(=O)N1C2CCC1CC(N1CCC3(CC1)CN(C(C)=O)c1ccccc13)C2 (stereo not shown) [compound 743] | < 25 | x (activity was measured to be greater than 5.0 μM) | < 25 | x (activity was measured to be greater than 5.0 μM) |  |  |  |  | 
